Source: ChEMBL document CHEMBL1122680, “A photoaffinity reagent to label the opiate receptors of guinea pig ileum and mouse vas deferens” (J Med Chem, 1984)

How the values were obtained:
Format in all cases: functional
Rattus norvegicus = species on record: Rattus norvegicus; assay: Inhibitory effect on the binding of 2 nM [3H]naloxone to rat brain membrane
Cavia porcellus = species on record: Cavia porcellus; assay: Inhibitory effect on electrically induced contraction of guinea pig ileum (GPI)
[1] = Relative potency calculated from the ratio of IC50 of [Leu]-enkephalin to that of the compound
Mus musculus = species on record: Mus musculus; assay: Inhibitory effect on electrically induced contraction of Mouse vas deferens (MVD)

| SMILES | IC50 (Rattus norvegicus) | IC50 (Cavia porcellus) | Potency [1] | IC50 (Mus musculus) |
| --- | --- | --- | --- | --- |
| CC(C)C[C@H](NC(=O)[C@H](Cc1ccccc1)NC(=O)CNC(=O)CNC(=O)[C@@H](N)Cc1ccc(O)cc1)C(N)=O [[LEU5]ENKEPHALIN] | 118 nM | 120 nM | 1 | 17 nM |
| C=CCN1CC[C@]23c4c5ccc(O)c4O[C@H]2C(=O)CC[C@@]3(O)[C@H]1C5 [NALOXONE] | 6.39 nM |  | 18.5 |  |
| CC(C)C[C@H](NC(=O)[C@H](Cc1ccccc1)NC(=O)CNC(=O)[C@H](C)NC(=O)[C@@H](N)Cc1ccc(O)cc1)C(=O)NCCNc1ccc(N=[N+]=[N-])cc1[N+](=O)[O-] | 2.52 nM | 4.35 nM | 46.8 | 2.59 nM |
| CC(C)C[C@H](NC(=O)[C@H](Cc1ccccc1)NC(=O)CNC(=O)[C@@H](C)NC(=O)[C@@H](N)Cc1ccc(O)cc1)C(N)=O | 30 nM | 5.23 nM | 3.9 | 2.88 nM |
